Target: TrkA (Homo sapiens (Human), UniProt P04629)
Assay: TrkA Omnia Assay
Type: biochemical
Settings: averaged IC50; 20 nM enzyme, 500 μM ATP, 10 μM peptide substrate
Procedure, shortened: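 Continuous fluorescent kinase read-out (ex 360 nm, em 485 nm) over 70 min, with initial rates fitted to 4- or 5-parameter logistic curves for IC50. Final conditions: 500 μM ATP, 10 μM Omnia Tyr Peptide #4, 20 nM TrkA, MOPS pH 7.5 buffer with MgCl2 and Triton X-100; enzyme and compound preincubated 10 min at ambient temperature.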

Sequence of TrkA (P04629 33-796): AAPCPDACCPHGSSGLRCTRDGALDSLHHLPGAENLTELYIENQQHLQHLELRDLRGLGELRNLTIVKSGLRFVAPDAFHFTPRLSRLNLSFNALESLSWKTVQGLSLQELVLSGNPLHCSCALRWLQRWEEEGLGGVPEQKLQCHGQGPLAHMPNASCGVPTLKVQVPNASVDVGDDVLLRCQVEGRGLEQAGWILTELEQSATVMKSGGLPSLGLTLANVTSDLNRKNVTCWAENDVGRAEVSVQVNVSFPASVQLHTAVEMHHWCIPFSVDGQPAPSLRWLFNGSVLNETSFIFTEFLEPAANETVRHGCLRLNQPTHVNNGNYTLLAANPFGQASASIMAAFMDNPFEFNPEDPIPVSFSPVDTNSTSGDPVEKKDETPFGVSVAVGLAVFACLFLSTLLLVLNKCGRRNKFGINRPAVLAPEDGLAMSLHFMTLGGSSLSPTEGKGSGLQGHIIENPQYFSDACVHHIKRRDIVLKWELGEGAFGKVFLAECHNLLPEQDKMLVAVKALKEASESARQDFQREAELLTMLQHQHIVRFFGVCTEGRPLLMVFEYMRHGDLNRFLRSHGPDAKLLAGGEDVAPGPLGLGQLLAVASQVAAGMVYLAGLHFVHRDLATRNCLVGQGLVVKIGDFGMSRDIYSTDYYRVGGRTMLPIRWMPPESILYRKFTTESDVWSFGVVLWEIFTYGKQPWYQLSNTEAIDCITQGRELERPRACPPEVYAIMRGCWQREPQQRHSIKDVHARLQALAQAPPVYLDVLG

Row | Structure (SMILES) | IC50 [nM]
1 | COCCN1C[C@@H](NC(=O)Nc2c(Cl)c(-c3ccccc3)nn2C)[C@H](c2ccc(F)c(F)c2)C1 [Example 67, 1-(4-chloro-1-methyl-3-phenyl-1H-pyrazol-5-yl)-3-((3S,4R)-4-(3,4-difluorophenyl)-1-(2-methoxyethyl)pyrrolidin-3-yl)urea] | 100 to 1000
2 | COCCN1C[C@@H](NC(=O)Nc2c(Br)c(-c3ccccc3)nn2C)[C@H](c2ccc(F)c(F)c2)C1 [Example 68, 1-(4-bromo-1-methyl-3-phenyl-1H-pyrazol-5-yl)-3-((3S,4R)-4-(3,4-difluorophenyl)-1-(2-methoxyethyl)pyrrolidin-3-yl)urea] | 1000 to 10000
3 | COCCN1C[C@@H](NC(=O)Nc2c(C)c(OC[C@@H]3COC(C)(C)O3)nn2-c2ccccc2)[C@H](c2ccc(F)c(F)c2)C1 [Example 77, 1-((3S,4R)-4-(3,4-difluorophenyl)-1-(2-methoxyethyl)pyrrolidin-3-yl)-3-(3-(((R)-2,2-dimethyl-1,3-dioxolan-4-yl)methoxy)-4-methyl-1-phenyl-1H-pyrazol-5-yl)urea] | < 100
4 | COCCN1C[C@@H](NC(=O)Nc2c3c(nn2-c2ccccc2)CN(C(=O)OC(C)(C)C)C3)[C@H](c2ccccc2)C1 [Example 79, tert-butyl 3-(3-((3S,4R)-1-(2-methoxyethyl)-4-phenylpyrrolidin-3-yl)ureido)-2-phenyl-4,6-dihydropyrrolo[3,4-c] pyrazole-5(2H)-carboxylate] | 1000 to 10000
5 | COCCN1C[C@@H](NC(=O)Nc2c(C)c(C(C)C)nn2-c2ccccc2)[C@H](c2ccccc2)C1 [Example 80, 1-(3-isopropyl-4-methyl-1-phenyl-1H-pyrazol-5-yl)-3-((3S,4R)-1-(2-methoxy-ethyl)-4-phenylpyrrolidin-3-yl)urea] | < 100
6 | COCCN1C[C@@H](NC(=O)Nc2c3c(nn2-c2ccccc2)COC3)[C@H](c2ccccc2)C1 [Example 81, 1-((3S,4R)-1-(2-methoxy-ethyl)-4-phenylpyrrolidin-3-yl)-3-(2-phenyl-4,6-dihydro-2H-furo[3,4-c]pyrazol-3-yl)urea] | < 100
7 | COCCN1C[C@@H](NC(=O)Nc2c3c(nn2-c2ccccc2)CSC3)[C@H](c2ccccc2)C1 [Example 82, 1-((3S,4R)-1-(2-methoxy-ethyl)-4-phenylpyrrolidin-3-yl)-3-(2-phenyl-4,6-dihydro-2H-thieno[3,4-c]pyrazol-3-yl)urea] | < 100
8 | COCCN1C[C@@H](NC(=O)Nc2c(C)c(C)nn2-c2ccccc2)[C@H](c2cc(F)cc(F)c2)C1 [Example 83, 1-((3S,4R)-4-(3,5-difluoro-phenyl)-1-(2-methoxyethyl)pyrrolidin-3-yl)-3-(3,4-dimethyl-1-phenyl-1H-pyrazol-5-yl)urea] | < 100
9 | COCCN1C[C@@H](NC(=O)Nc2c3c(nn2-c2ccccc2)CCC3)[C@H](c2cc(F)cc(F)c2)C1 [Example 84, 1-((3S,4R)-4-(3,5-difluoro-phenyl)-1-(2-methoxyethyl)pyrrolidin-3-yl)-3-(2-phenyl-2,4,5,6-tetrahydro-cyclopenta[c]pyrazol-3-yl)urea] | < 100
10 | COCCN1C[C@@H](NC(=O)Nc2cc(C(C)C)nn2-c2ccccc2)[C@H](c2cc(F)cc(F)c2)C1 [Example 85, 1-((3S,4R)-4-(3,5-difluoro-phenyl)-1-(2-methoxyethyl)pyrrolidin-3-yl)-3-(3-isopropyl-1-phenyl-1H-pyrazol-5-yl)urea] | < 100
11 | COCCN1C[C@@H](NC(=O)Nc2cc(C)nn2-c2ccccc2)[C@H](c2cc(F)cc(F)c2)C1 [Example 86, 1-((3S,4R)-4-(3,5-difluoro-phenyl)-1-(2-methoxyethyl)pyrrolidin-3-yl)-3-(3-methyl-1-phenyl-1H-pyrazol-5-yl)urea] | < 100
12 | COCCN1C[C@@H](NC(=O)Nc2c3c(nn2-c2ccccc2)COC3)[C@H](c2cc(F)cc(F)c2)C1 [Example 88, 1-((3S,4R)-4-(3,5-difluoro-phenyl)-1-(2-methoxyethyl)pyrrolidin-3-yl)-3-(2-phenyl-4,6-dihydro-2H-furo[3,4-c]pyrazol-3-yl) urea] | < 100
13 | COCCN1C[C@@H](NC(=O)Nc2c3c(nn2-c2ccccc2)CSC3)[C@H](c2cc(F)cc(F)c2)C1 [Example 89, 1-((3S,4R)-4-(3,5-difluoro-phenyl)-1-(2-methoxyethyl)pyrrolidin-3-yl)-3-(2-phenyl-4,6-dihydro-2H-thieno[3,4-c]pyrazol-3-yl) urea] | < 100
14 | COCCN1C[C@@H](NC(=O)Nc2c3c(nn2-c2ccccc2)COC3)[C@H](c2ccc(F)c(F)c2)C1 [Example 90, 1-((3S,4R)-4-(3,4-difluoro-phenyl)-1-(2-methoxyethyl)pyrrolidin-3-yl)-3-(2-phenyl-4,6-dihydro-2H-furo[3,4-c]pyrazol-3-yl) urea] | < 100
15 | COCCN1C[C@@H](NC(=O)Nc2c3c(nn2-c2ccccc2)CSC3)[C@H](c2ccc(F)c(F)c2)C1 [Example 91, 1-((3S,4R)-4-(3,4-difluoro-phenyl)-1-(2-methoxyethyl)pyrrolidin-3-yl)-3-(2-phenyl-4,6-dihydro-2H-thieno[3,4-c]pyrazol-3-yl) urea] | < 100
16 | COCCN1C[C@@H](NC(=O)Nc2c(C)c(C)nn2-c2ccccc2)[C@H](c2ccc(F)c(F)c2)C1 [Example 92, 1-((3S,4R)-4-(3,4-difluoro-phenyl)-1-(2-methoxyethyl)pyrrolidin-3-yl)-3-(3,4-dimethyl-1-phenyl-1H-pyrazol-5-yl)urea] | < 100
17 | COCCN1C[C@@H](NC(=O)Nc2cc(-c3ccccc3)nn2C)[C@H](c2ccc(F)c(F)c2)C1 [Example 93, 1-((3S,4R)-4-(3,4-difluoro-phenyl)-1-(2-methoxyethyl)pyrrolidin-3-yl)-3-(1-methyl-3-phenyl-1H-pyrazol-5-yl)urea] | < 100

Next, values leading:

Row | IC50 [nM] | Structure (SMILES)
18 | < 100 | COCCN1C[C@@H](NC(=O)Nc2c(Cl)c(-c3ccccc3)nn2-c2ccccc2)[C@H](c2ccc(F)c(F)c2)C1 [Example 62, 1-(4-chloro-1,3-diphenyl-1H-pyrazol-5-yl)-3-((3S,4R)-4-(3,4-difluorophenyl)-1-(2-methoxyethyl)pyrrolidin-3-yl)urea]
19 | < 100 | COCCN1C[C@@H](NC(=O)Nc2c(Br)c(-c3ccccc3)nn2-c2ccccc2)[C@H](c2ccc(F)c(F)c2)C1 [Example 63, 1-(4-bromo-1,3-diphenyl-1H-pyrazol-5-yl)-3-((3S,4R)-4-(3,4-difluorophenyl)-1-(2-methoxyethyl)pyrrolidin-3-yl)urea]
20 | < 100 | COCCN1C[C@@H](NC(=O)Nc2c(Cl)c(C)nn2-c2ccccc2)[C@H](c2ccc(F)c(F)c2)C1 [Example 64, 1-(4-chloro-3-methyl-1-phenyl-1H-pyrazol-5-yl)-3-((3S,4R)-4-(3,4-difluorophenyl)-1-(2-methoxyethyl)pyrrolidin-3-yl)urea]
21 | < 100 | COCCN1C[C@@H](NC(=O)Nc2c(-c3ccccc3)c(C)nn2C)[C@H](c2ccc(F)c(F)c2)C1 [Example 65, 1-((3S,4R)-4-(3,4-difluorophenyl)-1-(2-methoxyethyl)pyrrolidin-3-yl)-3-(1,3-dimethyl-4-phenyl-1H-pyrazol-5-yl) urea]
22 | < 100 | COCCN1C[C@@H](NC(=O)Nc2c(C#N)c(C)nn2-c2ccccc2)[C@H](c2ccc(F)c(F)c2)C1 [Example 66, 1-(4-cyano-3-methyl-1-phenyl-1H-pyrazol-5-yl)-3-((3S,4R)-4-(3,4-difluorophenyl)-1-(2-methoxyethyl)pyrrolidin-3-yl)urea]
23 | < 100 | COCCN1C[C@@H](NC(=O)Nc2c(C#N)c(CC#N)nn2-c2ccccc2)[C@H](c2ccc(F)c(F)c2)C1 [Example 70, 1-(4-cyano-3-(cyano-methyl)-1-phenyl-1H-pyrazol-5-yl)-3-((3S,4R)-4-(3,4-difluorophenyl)-1-(2-methoxyethyl)pyrrolidin-3-yl)urea]
24 | < 100 | COCCN1C[C@@H](NC(=O)Nc2cc(C(C)(C)C#N)nn2-c2ccccc2)[C@H](c2ccc(F)c(F)c2)C1 [Example 71, 1-(3-(2-cyanopropan-2-yl)-1-phenyl-1H-pyrazol-5-yl)-3-((3S,4R)-4-(3,4-difluorophenyl)-1-(2-methoxyethyl)pyrrolidin-3-yl)urea]
25 | < 100 | CCc1nn(-c2ccccc2)c(NC(=O)N[C@@H]2CN(CCOC)C[C@H]2c2ccc(F)c(F)c2)c1C [Example 72, 1-((3S,4R)-4-(3,4-difluorophenyl)-1-(2-methoxyethyl)pyrrolidin-3-yl)-3-(3-ethyl-4-methyl-1-phenyl-1H-pyrazol-5-yl)urea]
26 | < 100 | COCCN1C[C@@H](NC(=O)Nc2cc(-c3cnn(C)c3)nn2-c2ccccc2)[C@H](c2ccc(F)c(F)c2)C1 [Example 73, 1-((3S,4R)-4-(3,4-difluorophenyl)-1-(2-methoxyethyl)pyrrolidin-3-yl)-3-(1′-methyl-1-phenyl-1H,1′H-3,4′-bipyrazol-5-yl)urea]
27 | < 100 | COCCN1C[C@@H](NC(=O)Nc2c(C)c(OCC3COC3)nn2-c2ccccc2)[C@H](c2ccc(F)c(F)c2)C1 [Example 74, 1-((3S,4R)-4-(3,4-difluorophenyl)-1-(2-methoxyethyl)pyrrolidin-3-yl)-3-(4-methyl-3-(oxetan-3-ylmethoxy)-1-phenyl-1H-pyrazol-5-yl)urea]
28 | < 100 | COCCN1C[C@@H](NC(=O)Nc2c(C)c(OCC3(C)COC3)nn2-c2ccccc2)[C@H](c2ccc(F)c(F)c2)C1 [Example 75, 1-((3S,4R)-4-(3,4-difluorophenyl)-1-(2-methoxyethyl)pyrrolidin-3-yl)-3-(4-methyl-3-((3-methyloxetan-3-yl)methoxy)-1-phenyl-1H-pyrazol-5-yl)urea]
29 | < 100 | COCCN1C[C@@H](NC(=O)Nc2c(C)c(OC[C@H]3COC(C)(C)O3)nn2-c2ccccc2)[C@H](c2ccc(F)c(F)c2)C1 [Example 76, 1-((3S,4R)-4-(3,4-difluorophenyl)-1-(2-methoxyethyl)pyrrolidin-3-yl)-3-(3-(((S)-2,2-dimethyl-1,3-dioxolan-4-yl)methoxy)-4-methyl-1-phenyl-1H-pyrazol-5-yl)urea]

Source: patent US10323022B2, “Pyrrolidinyl urea, pyrrolidinyl thiourea and pyrrolidinyl guanidine compounds as TrkA kinase inhibitors” (Array BioPharma Inc., priority 2011, dated 2019)
